In patent publication EP4582426A1, “PAN-KRAS INHIBITOR COMPOUND” (Adlai Nortye Biopharma Co., Ltd., priority 2022, dated 2024):

Columns and labels:
AsPC-1 (G12D) = assay: In vitro cell proliferation inhibition test (CellTiter-Glo Luminescent Cell Viability Assay); type: cell-based; conditions: AsPC-1 cell line, Pancreas, KRAS (p.G12D), cells and compounds co-incubated 72 hours
Outline: (§1)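 Cells were seeded at 1000-5000/well and cultured overnight, then exposed to compound (top final 10 µM, ten 3-fold dilutions) for 72 h at 37°C, 5% CO2. Viability was read by CellTiter-Glo luminescence; IC50 was obtained from four-parameter fits of normalized signal.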

SW480 (G12V) = assay: as above; type: cell-based; conditions: SW480 cell line, Large intestine, Colon, KRAS (p.G12V), cells and compounds co-incubated 72 hours
Outline: as §1

Row | Compound | IC50 (AsPC-1 (G12D)) [nM] | IC50 (SW480 (G12V)) [nM] | also measured
1 | CCn1c(-c2cc(C#Cc3cccnc3)cnc2C(C)OC)c2c3cc(ccc31)-c1csc(n1)CC(NC(=O)C1CC1C)C(=O)N1CCCC(N1)C(=O)OCC(C)(C)C2 [Example 17, (1S,2S)-N-((63S,4S,Z)-11-ethyl-12-(2-((S)-1-methoxyethyl)-5-(pyridin-3-ylethynyl)pyridin-3-yl)-10,10-dimethyl-5,7-dioxo-61,62,63,64,65,66-hexahydro-11H-8-oxa-2(4,2)-thiazola-1(5,3)-indola-6(1,3)-pyridazinacyclonecaphane-4-yl)-2-methylcyclopropane-1-carboxamide] | 37.8 | 30.2 | IC50 (AsPC-1 (G12D); listed as 17'): 700 nM; IC50 (SW480 (G12V); listed as 17'): 474 nM
2 | CCn1c(-c2cc(C#CCN3CCC(F)C3)cnc2C(C)OC)c2c3cc(ccc31)-c1csc(n1)CC(NC(=O)C1C(C)C1C)C(=O)N1CCCC(N1)C(=O)OCC(C)(C)C2 (single isomer, unassigned) [Example 21] | 0.82 | 1.1 | –
3 | CCn1c(-c2cc(C#CCN3C[C@@H](C)O[C@@H](C)C3)cnc2[C@H](C)OC)c2c3cc(ccc31)-c1csc(n1)C[C@H](NC(=O)[C@H]1C[C@@H]1C)C(=O)N1CCC[C@H](N1)C(=O)OCC(C)(C)C2 (single isomer, unassigned) [Example 9] | 4.5 | 31.6 | IC50 (AsPC-1 (G12D); listed as 9'): 1360 nM; IC50 (SW480 (G12V); listed as 9'): 963 nM
4 | CCn1c(-c2cc(C#CC3(C)CN(C)C3)cnc2C(C)OC)c2c3cc(ccc31)-c1csc(n1)CC(NC(=O)C1C(C)C1C)C(=O)N1CCCC(N1)C(=O)OCC(C)(C)C2 (single isomer, unassigned) [Example 19] | 2.2 | 1.5 | –
5 | CCn1c(-c2cc(C#CCN3CCOCC3)cnc2[C@H](C)OC)c2c3cc(ccc31)-c1csc(n1)C[C@H](NC(=O)[C@H]1C[C@@H]1C)C(=O)N1CCC[C@H](N1)C(=O)OCC(C)(C)C2 (single isomer, unassigned) [Example 1] | 0.92 | 1.02 | IC50 (AsPC-1 (G12D); listed as 1'): 582 nM; IC50 (SW480 (G12V); listed as 1'): 343 nM
6 | CCn1c(-c2cc(C#CCN3CCN(C)CC3)cnc2[C@H](C)OC)c2c3cc(ccc31)-c1csc(n1)C[C@H](NC(=O)[C@H]1[C@H](C)[C@@H]1C)C(=O)N1CCC[C@H](N1)C(=O)OCC(C)(C)C2 [Example 52, (1r,2R,3S)-N-((6^3S,4S,Z)-1^1-ethyl-1^2-(2-((S)-1-methoxyethyl)-5-(3-(4-methylpiperazin-1-yl)prop-1-yn-1-yl)pyridin-3-yl)-10,10-dimethyl-5,7-dioxo-6^1,6^2,6^3,6^4,6^5,6^6-hexahydro-1^1H-8-oxa-2(4,2)-thiazola-1(5,3)-indola-6(1,3)-pyridazinacycloundecaphane-4-yl)-2,3-dimethylcyclopropane-1-carboxamide] | 0.24 | 0.3 | –
7 | CCn1c(-c2cc(C#CCCN3CCOCC3)cnc2[C@H](C)OC)c2c3cc(ccc31)-c1csc(n1)C[C@H](NC(=O)[C@H]1C[C@@H]1C)C(=O)N1CCC[C@H](N1)C(=O)OCC(C)(C)C2 (single isomer, unassigned) [Example 5] | 3220 | 24.6 | IC50 (SW480 (G12V); listed as 5'): 2020 nM
8 | CCn1c(-c2cc(C#CCN3CCN(C(C)=O)CC3)cnc2C(C)OC)c2c3cc(ccc31)-c1csc(n1)CC(NC(=O)C1C(C)C1C)C(=O)N1CCCC(N1)C(=O)OCC(C)(C)C2 [Example 41, (1r,2R,3S)-N-((6^3S,4S,Z)-1^2-(5-(3-(4-acetylpiperazin-1-yl)prop-1-yn-1-yl)-2-((S)-1-methoxyethyl)pyridin-3-yl)-1^1-ethyl-10,10-dimethyl-5,7-dioxo-6^1,6^2,6^3,6^4,6^5,6^6-hexahydro-1^1H-8-oxa-2(4,2)-thiazola-1(5,3)-indola-6(1,3)-pyridazinacycloundecaphane-4-yl)-2,3-dimethylcyclopropane-1-carboxamide] | 0.56 | 0.65 | –
9 | CCn1c(-c2cc(C#CC3CN(C)CCO3)cnc2C(C)OC)c2c3cc(ccc31)-c1csc(n1)CC(NC(=O)C1CC1C)C(=O)N1CCCC(N1)C(=O)OCC(C)(C)C2 (single isomer, unassigned) [Example 6] | 14 | 18.5 | IC50 (AsPC-1 (G12D); listed as 6'): 3960 nM; IC50 (SW480 (G12V); listed as 6'): 1830 nM
10 | CCn1c(-c2cc(C#Cc3cccc4c3CN(C)C4)cnc2[C@H](C)OC)c2c3cc(ccc31)-c1csc(n1)C[C@H](NC(=O)[C@H]1C[C@@H]1C)C(=O)N1CCC[C@H](N1)C(=O)OCC(C)(C)C2 (single isomer, unassigned) [Example 30] | 8.2 | 84.2 | –
11 | CCn1c(-c2cc(C#CCN3CCOCC3)cnc2[C@H](C)OC)c2c3cc(ccc31)-c1csc(n1)C[C@H](NC(=O)C1(C(F)(F)F)CC1)C(=O)N1CCC[C@H](N1)C(=O)OCC(C)(C)C2 (single isomer, unassigned) [Example 26] | 20.8 | 34.6 | –
12 | CCn1c(-c2cc(C#Cc3cnccn3)cnc2[C@H](C)OC)c2c3cc(ccc31)-c1csc(n1)C[C@H](NC(=O)[C@H]1C[C@@H]1C)C(=O)N1CCC[C@H](N1)C(=O)OCC(C)(C)C2 (single isomer, unassigned) [Example 27] | 4.6 | 14.5 | –
13 | CCn1c(-c2cc(C#CCN3CCP(C)(=O)CC3)cnc2[C@H](C)OC)c2c3cc(ccc31)-c1csc(n1)C[C@H](NC(=O)[C@H]1C[C@@H]1C)C(=O)N1CCC[C@H](N1)C(=O)OCC(C)(C)C2 [Example 49, (1S,2S)-N-((6^3S,4S,Z)-1^1-ethyl-1^2-(2-((S)-1-methoxyethyl)-5-(3-(4-methyl-4-oxido-1,4-azaphosphinan-1-yl)prop-1-yn-1-yl)pyridin-3-yl)-10,10-dimethyl-5,7-dioxo-6^1,6^2,6^3,6^4,6^5,6^6-hexahydro-1^1H-8-oxa-2(4,2)-thiazola-1(5,3)-indola-6(1,3)-pyridazinacycloundecaphane-4-yl)-2-methylcyclopropane-1-carboxamide] | 7.5 | 9.2 | –
14 | (1S,2S)-N-((6^3S,4S,Z)-1^1-ethyl-1^2-(5-((2-(ethylamino)pyrimidin-5-yl)ethynyl)-2-((S)-1-methoxyethyl)pyridin-3-yl)-10,10-dimethyl-5,7-dioxo-6^1,6^2,6^3,6^4,6^5,6^6-hexahydro-1^1H-8-oxa-2(4,2)-thiazola-1(5,3)-indola-6(1,3)-pyridazinacycloundecaphane-4-yl)-2-methylcyclopropane-1-carboxamide [Example 42] | 22.2 | 6.9 | –
15 | (1S,2S)-N-((6^3S,4S,Z)-1^1-ethyl-1^2-(2-((S)-1-methoxyethyl)-5-((6-methyl-5,6,7,8-tetrahydropyrido[4,3-d]pyrimidin-2-yl)ethynyl)pyridin-3-yl)-10,10-dimethyl-5,7-dioxo-6^1,6^2,6^3,6^4,6^5,6^6-hexahydro-1^1H-8-oxa-2(4,2)-thiazola-1(5,3)-indola-6(1,3)-pyridazinacycloundecaphane-4-yl)-2-methylcyclopropane-1-carboxamide [Example 44] | 16.8 | 6.3 | –
16 | CCn1c(-c2cc(C#CC3CN(C)CCS3(=N)=O)cnc2C(C)OC)c2c3cc(ccc31)-c1csc(n1)CC(NC(=O)C1CC1C)C(=O)N1CCCC(N1)C(=O)OCC(C)(C)C2 [Example 51, (1S,2S)-N-((6^3S,4S,Z)-1^1-ethyl-1^2-(5-(((2S)-1-imino-4-methyl-1-oxido-1λ^6-thiomorpholin-2-yl)ethynyl)-2-((S)-1-methoxyethyl)pyridin-3-yl)-10,10-dimethyl-5,7-dioxo-6^1,6^2,6^3,6^4,6^5,6^6-hexahydro-1^1H-8-oxa-2(4,2)-thiazola-1(5,3)-indola-6(1,3)-pyridazinacycloundecaphane-4-yl)-2-methylcyclopropane-1-carboxamide] | 4.5 | 5.4 | –
17 | CCn1c(-c2cc(C#CCN(C)C3CCOCC3)cnc2C(C)OC)c2c3cc(ccc31)-c1csc(n1)CC(NC(=O)C1C(C)C1C)C(=O)N1CCCC(N1)C(=O)OCC(C)(C)C2 [Example 36, (1r,2R,3S)-N-((6^3S,4S,Z)-1^1-ethyl-1^2-(2-((S)-1-methoxyethyl)-5-(3-(methyl(tetrahydro-2H-pyran-4-yl)amino)prop-1-yn-1-yl)pyridin-3-yl)-10,10-dimethyl-5,7-dioxo-6^1,6^2,6^3,6^4,6^5,6^6-hexahydro-1^1H-8-oxa-2(4,2)-thiazola-1(5,3)-indola-6(1,3)-pyridazinacycloundecaphane-4-yl)-2,3-dimethylcyclopropane-1-carboxamide] | 0.73 | 0.54 | –
18 | CCn1c(-c2cc(C#CCN3CCS(=N)(=O)CC3)cnc2C(C)OC)c2c3cc(ccc31)-c1csc(n1)CC(NC(=O)C1CC1C)C(=O)N1CCCC(N1)C(=O)OCC(C)(C)C2 [Example 57, (1S,2S)-N-((6^3S,4S,Z)-1^1-ethyl-1^2-(5-(3-(1-imino-1-oxido-1l6-thiomorpholino)prop-1-yn-1-yl)-2-((S)-1-methoxyethyl)pyridin-3-yl)-10,10-dimethyl-5,7-dioxo-6^1,6^2,6^3,6^4,6^5,6^6-hexahydro-1^1H-8-oxa-2(4,2)-thiazola-1(5,3)-indola-6(1,3)-pyridazinacycloundecaphane-4-yl)-2-methylcyclopropane-1-carboxamide] | 1.9 | 2 | –
